This passage reports ED50 and IC50 results from patent US4981872A, “Prostaglandin derivatives, their preparation and their therapeutic use” (Sankyo Company Limited, priority 1987, dated 1991).

Structures are written as SMILES. Values after ≈ are worked out from the molar mass of the structure shown. Some results are limits rather than exact numbers.

Assay [1] has as its system ethanol-induced gastric ulcers. Kind of assay: Effects on ethanol-induced gastric ulcers (inhibition of gastric mucosal lesions, oral). It counts as in vivo, male rats of the Sprague-Dawley strain. To be noted: p.o., 1 hour before 1 ml absolute ethanol, rat, ID50 of gastric mucosal lesions, read-out: Anti-ulcer activity (ID50, p.o.). As to the method:
Effects on ethanol-induced qastric ulcers
The test animals used were male rats of the Sprague-Dawley strain each having a body weiqht of about 180-200 g, prior to use in this experiment they were starved for about 42 hours. At the end of this time, each animal was orally administered one of the test compounds shown in the following Table 3. in which the compounds are identified by the number of the foregoing Example in which they were prepared. One hour after administration, gastric mucosal lesions were induced by the oral administration of 1 ml of absolute ethanol. One hour after this administration, the animals were sacrificed with dry ice, and their stomachs were removed and fixed with formalin. The area (mm^2) of the mucosal lesions induced on the gastric mucosa by the ethanol was measured by a video image processor and the inhibition of gastric mucosal lesions by each test compound was calculated in terms of the ID50, by comparison with the results achieved from control animals which had been treated as described above, except that no anti ulcer compound was administered and from the results achieved from the test compounds at various levels of administration.
As a control, there was used the following prior art 6-oxo compound (ORNOPROSTIL): [drawing 12]

Assay [2] concerns blood platelet aggregation. Kind of assay: Inhibition of blood platelet aggregation in vitro (adenosine diphosphate-induced, Born's method). It counts as cell-based, Japanese white rabbit. To be noted: Oryctolagus cuniculus, rabbit PRP/PPP mixture, ADP 5μM. As to the method:
Inhibition of blood platelet aggregation in vitro
One part by volume of blood from a Japanese white rabbit was mixed immediately after removal with one tenth of its volume of a 3.8% w/v aqueous solution of sodium citrate. The mixture was then centrifuged at 95×G for 15 minutes at room temperature to obtain a platelet-rich plasma (PRP) as the upper layer. The remaining blood sample was then centrifuged for a further 15 minutes at 1000×G to obtain a platelet poor plasma (PPP). By mixing appropriate amounts of the PRP and the PPP, the final platelet count of the mixture was adjusted to 6×105 per μ, platelet aggregation was determined by Born's method [G. V. R. Born: J. Physiol. 62, 67-68 (1962)] by increases in transparency of the test liquid using a platelet aggregometer 25 μl of a solution of the test compound were added to 250 μof the mixture of PRP and PPP and then two minutes after mixing the solutions 25 μl of a liquid containing adenosine diphosphate at a concentration of 5μM were added.
The inhibition of platelet aggregation was assessed by comparing the increase in the amount of light transmitted through the test sample treated platelet-rich plasma with a control platelet-rich plasma which had been treated in the same way, except that the test compound was replaced by physiological saline.

For `CCCCC(C)(C)[C@H](O)/C=C/[C@H]1[C@H](O)CC(=O)[C@@H]1CCCC(=O)CCC(=O)OC` [Ex. 31, Methyl 4,9-dioxo-11α,15α-dihydroxy-16,16-dimethylprost 13(E) enoate], the ED50 in assay [1] amounted to 4.91 µg/kg. For the same molecule, the IC50 (as a rule, the concentration that gives 50% inhibition) in assay [2] was > 10 µg/mL.

As to `COC(=O)CCC(=O)CCC[C@H]1C(=O)C[C@@H](O)[C@@H]1/C=C/[C@@H](O)COc1ccccc1` [Ex. 30, Methyl 4,9-dioxo-11α,15α-dihydroxy-16-phenoxy17,18,19,20-tetranprprost 13(E)-enoate], the ED50 in assay [1] was determined as 3.7 µg/kg. Also, in assay [2], the IC50 is > 10 µg/mL.

Consider `CCCC[C@H](C)C[C@H](O)/C=C/[C@H]1[C@H](O)CC(=O)[C@@H]1CC(=O)CCCCC(=O)OC` [Control, reference compound], for which the ED50 in assay [1] is 0.2 µg/kg. For the same molecule, in assay [2], the IC50 was found to be 0.0019 µg/mL (≈ 0.00463 µM).

Consider `COC(=O)CCCC(=O)CC[C@H]1C(=O)C[C@@H](O)[C@@H]1/C=C/[C@@H](O)COc1ccccc1` [Ex. 1, 5-Oxo-16-phenoxy-17,18,19,20-tetranorprostaglandin E1 methyl ester], for which the ED50 in assay [1] stood at 2.94 µg/kg. The IC50 in assay [2] is > 10 µg/mL.

For `COC(=O)CCCC(=O)CC[C@H]1C(=O)C[C@@H](O)[C@@H]1/C=C/[C@@H](O)COc1ccc(Cl)cc1` [Ex. 11, 5-Oxo-16-p-chlorophenoxy-17,18,19,20-tetranorprostaglandin E1 methyl ester], the ED50 in assay [1] turned out to be 0.49 µg/kg. In assay [2], the IC50 was > 10 µg/mL.
